Experimental data as given in paper PMC6268968 (Molecules, 2012).

Target: T1, Acetylcholinesterase (Electrophorus electricus, UniProt O42275)
T1 construct: gene ache
Assay: Ellman spectrophotometric assay (acetylthiocholine/DTNB, […] nm)
Format: biochemical

T1 sequence (O42275 24-633): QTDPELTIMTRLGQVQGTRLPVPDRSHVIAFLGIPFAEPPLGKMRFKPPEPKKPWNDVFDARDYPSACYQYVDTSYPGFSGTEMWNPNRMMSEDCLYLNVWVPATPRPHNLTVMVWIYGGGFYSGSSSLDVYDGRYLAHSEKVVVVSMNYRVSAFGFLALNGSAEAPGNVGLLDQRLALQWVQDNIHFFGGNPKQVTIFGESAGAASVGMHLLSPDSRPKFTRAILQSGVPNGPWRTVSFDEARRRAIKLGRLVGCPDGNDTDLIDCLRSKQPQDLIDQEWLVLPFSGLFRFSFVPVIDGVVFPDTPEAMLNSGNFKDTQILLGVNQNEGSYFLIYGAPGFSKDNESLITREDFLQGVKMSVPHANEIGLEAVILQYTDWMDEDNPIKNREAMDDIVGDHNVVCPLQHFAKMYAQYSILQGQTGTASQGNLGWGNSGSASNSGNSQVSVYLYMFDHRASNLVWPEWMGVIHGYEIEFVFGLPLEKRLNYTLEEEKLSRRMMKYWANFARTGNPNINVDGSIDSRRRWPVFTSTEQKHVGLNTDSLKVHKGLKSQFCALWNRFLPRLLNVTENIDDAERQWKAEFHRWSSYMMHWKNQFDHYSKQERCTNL

`O=C(/C=C/c1ccc(O)cc1)NCCc1ccc(O)cc1` [compound 1, trans-N-coumaroyltyramine] was tested, and the IC50 was 98.3 µM.

For `COc1cc(/C=C/C(=O)NCCc2ccc(O)cc2)ccc1O` [compound 2, trans-N-feruloyltyramine], the IC50 was 86 µM.

In the case of `O=C(/C=C/c1ccc(O)c(O)c1)NCCc1ccc(O)cc1` [compound 3, trans-N-caffeoyltyramine], the IC50 is reported as 84.3 µM.
